Test results taken from ChEMBL document CHEMBL1671725, “The ABC transporter AnrAB contributes to the innate resistance of Listeria monocytogenes to nisin, bacitracin, and various beta-lactam antibiotics” (2010).
≈ marks a conversion by molar mass, not a printed value. Bridge positions count the residues as written; N and C are the ends. Square brackets hold non-standard residues; d marks the D form. Peptide text beside a SMILES is read from it. * marks the point of attachment. Ileψ(thiazoline)Cys = CC[C@H](C)[C@H](N)C1=N[C@H](C(=O)*)CS1; dOrn = NCCC[C@@H](N)C(=O)O

Key:
Format in all cases: functional
Listeria monocytogenes [1] = test: Antimicrobial activity against Listeria monocytogenes EGD-e at 10 ug after 16 hrs by disk diffusion assay; details: read-out: IZ
Listeria monocytogenes [2] = test: Antimicrobial activity against anrB-deficient Listeria monocytogenes EGD-e assessed as growth inhibition after 16 hrs by broth dilution method relative to wild type
Listeria monocytogenes [3] = test: Antimicrobial activity against anrB-deficient Listeria monocytogenes EGD-e at 10 ug after 16 hrs by disk diffusion assay; details: read-out: IZ
Listeria monocytogenes [4] = test: Antimicrobial activity against anrB-deficient Listeria monocytogenes EGD-e assessed as growth inhibition after 16 hrs by broth dilution method
Listeria monocytogenes [5] = test: Antimicrobial activity against Listeria monocytogenes EGD-e assessed as growth inhibition after 16 hrs by broth dilution method
Listeria monocytogenes [6] = test: Antimicrobial activity against lisK-deficient Listeria monocytogenes EGD-e assessed as growth inhibition after 16 hrs by broth dilution method relative to wild type
Listeria monocytogenes [7] = test: Antimicrobial activity against mprF-deficient Listeria monocytogenes EGD-e assessed as growth inhibition after 16 hrs by broth dilution method
Listeria monocytogenes [8] = test: Antimicrobial activity against mprF-deficient Listeria monocytogenes EGD-e assessed as growth inhibition after 16 hrs by broth dilution method relative to wild type
Listeria monocytogenes [9] = test: Antimicrobial activity against telA-deficient Listeria monocytogenes EGD-e assessed as growth inhibition after 16 hrs by broth dilution method relative to wild type
Listeria monocytogenes [10] = test: Antimicrobial activity against virR-deficient Listeria monocytogenes EGD-e assessed as growth inhibition after 16 hrs by broth dilution method
Listeria monocytogenes [11] = test: Antimicrobial activity against telA-deficient Listeria monocytogenes EGD-e assessed as growth inhibition after 16 hrs by broth dilution method
Listeria monocytogenes [12] = test: Antimicrobial activity against lisK-deficient Listeria monocytogenes EGD-e assessed as growth inhibition after 16 hrs by broth dilution method
Listeria monocytogenes [13] = test: Antimicrobial activity against virR-deficient Listeria monocytogenes EGD-e assessed as growth inhibition after 16 hrs by broth dilution method relative to wild type
Listeria monocytogenes [14] = test: Antimicrobial activity against Listeria monocytogenes EGD-e at 100 ug after 16 hrs by disk diffusion assay; details: read-out: IZ
Listeria monocytogenes [15] = test: Antimicrobial activity against anrB-deficient Listeria monocytogenes EGD-e at 100 ug after 16 hrs by disk diffusion assay; details: read-out: IZ
Listeria monocytogenes [16] = test: Antimicrobial activity against Listeria monocytogenes EGD-e at 30 ug after 16 hrs by disk diffusion assay; details: read-out: IZ
Listeria monocytogenes [17] = test: Antimicrobial activity against anrB-deficient Listeria monocytogenes EGD-e at 30 ug after 16 hrs by disk diffusion assay; details: read-out: IZ
Listeria monocytogenes [18] = test: Antimicrobial activity against Listeria monocytogenes EGD-e at 1 ug after 16 hrs by disk diffusion assay; details: read-out: IZ
Listeria monocytogenes [19] = test: Antimicrobial activity against anrB-deficient Listeria monocytogenes EGD-e at 1 ug after 16 hrs by disk diffusion assay; details: read-out: IZ
Listeria monocytogenes [20] = test: Antimicrobial activity against Listeria monocytogenes EGD-e at 5 ug after 16 hrs by disk diffusion assay; details: read-out: IZ
Listeria monocytogenes [21] = test: Antimicrobial activity against anrB-deficient Listeria monocytogenes EGD-e at 5 ug after 16 hrs by disk diffusion assay; details: read-out: IZ

CC1(C)S[C@@H]2[C@H](NC(=O)[C@H](N)c3ccccc3)C(=O)N2[C@H]1C(=O)O [AMPICILLIN]
zone of inhibition at 10 µg/disc (Listeria monocytogenes [1]): 32.8 mm | fold change (FC) (Listeria monocytogenes [2]): 2 | zone of inhibition at 10 µg/disc (Listeria monocytogenes [3]): 36.6 mm | MIC (Listeria monocytogenes [4]): 0.5 µg/mL (≈ 1.43 µM) | MIC (Listeria monocytogenes [5]): 1 µg/mL (≈ 2.86 µM)

CC[C@H](C)[C@H](N)C1=N[C@H](C(=O)N[C@@H](CC(C)C)C(=O)N[C@H](CCC(=O)O)C(=O)N[C@H](C(=O)N[C@H]2CCCCNC(=O)[C@H](CC(N)=O)NC(=O)[C@@H](CC(=O)O)NC(=O)[C@H](Cc3cnc[nH]3)NC(=O)[C@@H](Cc3ccccc3)NC(=O)[C@H]([C@@H](C)CC)NC(=O)[C@@H](CCCN)NC2=O)[C@@H](C)CC)CS1 [BACITRACIN] ({Ileψ(thiazoline)Cys}-L[dE]IK[dOrn]I[dF]H[dD]N; lactam 4-C)
Ratio (Listeria monocytogenes [6]): -2 | zone of inhibition at 10 µg/disc (Listeria monocytogenes [1]): 10.5 mm | fold change (FC) (Listeria monocytogenes [2]): 8 | zone of inhibition at 10 µg/disc (Listeria monocytogenes [3]): 20 mm | MIC (Listeria monocytogenes [4]): 32 µg/mL (≈ 22.5 µM) | MIC (Listeria monocytogenes [7]): 64 µg/mL (≈ 45 µM) | Ratio (Listeria monocytogenes [8]): -4 | Ratio (Listeria monocytogenes [9]): -2 | MIC (Listeria monocytogenes [10]): 2 µg/mL (≈ 1.41 µM) | MIC (Listeria monocytogenes [5]): 256 µg/mL (≈ 180 µM) | MIC (Listeria monocytogenes [11]): 128 µg/mL (≈ 90 µM) | MIC (Listeria monocytogenes [12]): 128 µg/mL (≈ 90 µM) | Ratio (Listeria monocytogenes [13]): -128

CC1(C)S[C@@H]2[C@H](NC(=O)C(C(=O)O)c3ccccc3)C(=O)N2[C@H]1C(=O)O (stereo partly drawn) [CARBENICILLIN]
zone of inhibition at 100 µg/disc (Listeria monocytogenes [14]): 36.7 mm | zone of inhibition at 100 µg/disc (Listeria monocytogenes [15]): 43 mm

N[C@@H](C(=O)N[C@@H]1C(=O)N2C(C(=O)O)=C(Cl)CS[C@H]12)c1ccccc1 [CEFACLOR ANHYDROUS]
zone of inhibition at 30 µg/disc (Listeria monocytogenes [16]): 22.2 mm | zone of inhibition at 30 µg/disc (Listeria monocytogenes [17]): 24.8 mm

CO[C@@]1(NC(=O)CSCC#N)C(=O)N2C(C(=O)O)=C(CSc3nnnn3C)CS[C@@H]21 [CEFMETAZOLE]
zone of inhibition at 30 µg/disc (Listeria monocytogenes [16]): 31.4 mm | zone of inhibition at 30 µg/disc (Listeria monocytogenes [17]): 34.2 mm

CCN1CCN(C(=O)N[C@@H](C(=O)N[C@@H]2C(=O)N3C(C(=O)O)=C(CSc4nnnn4C)CS[C@H]23)c2ccc(O)cc2)C(=O)C1=O [CEFOPERAZONE]
zone of inhibition at 30 µg/disc (Listeria monocytogenes [16]): 20.6 mm | zone of inhibition at 30 µg/disc (Listeria monocytogenes [17]): 24 mm

CO/N=C(\C(=O)N[C@@H]1C(=O)N2C(C(=O)O)=C(COC(C)=O)CS[C@H]12)c1csc(N)n1 [CEFOTAXIME]
fold change (FC) (Listeria monocytogenes [2]): 2 | MIC (Listeria monocytogenes [4]): 1 µg/mL (≈ 2.2 µM) | zone of inhibition at 30 µg/disc (Listeria monocytogenes [16]): 19.6 mm | zone of inhibition at 30 µg/disc (Listeria monocytogenes [17]): 22.5 mm | MIC (Listeria monocytogenes [5]): 2 µg/mL (≈ 4.39 µM)

CC(C)(O/N=C(\C(=O)N[C@@H]1C(=O)N2C(C(=O)[O-])=C(C[n+]3ccccc3)CS[C@H]12)c1csc(N)n1)C(=O)O [CEFTAZIDIME]
zone of inhibition at 30 µg/disc (Listeria monocytogenes [16]): 6.1 mm | zone of inhibition at 30 µg/disc (Listeria monocytogenes [17]): 7.8 mm

CO/N=C(\C(=O)N[C@@H]1C(=O)N2C(C(=O)O)=C(COC(N)=O)CS[C@H]12)c1ccco1 [CEFUROXIME]
fold change (FC) (Listeria monocytogenes [2]): 2 | MIC (Listeria monocytogenes [4]): 1.44 µg/mL (≈ 3.39 µM) | zone of inhibition at 30 µg/disc (Listeria monocytogenes [16]): 21.3 mm | zone of inhibition at 30 µg/disc (Listeria monocytogenes [17]): 24.8 mm | MIC (Listeria monocytogenes [5]): 2.87 µg/mL (≈ 6.76 µM)

CC1=C(C(=O)O)N2C(=O)[C@@H](NC(=O)[C@H](N)c3ccccc3)[C@H]2SC1 [CEPHALEXIN ANHYDROUS]
zone of inhibition at 30 µg/disc (Listeria monocytogenes [16]): 12.2 mm | zone of inhibition at 30 µg/disc (Listeria monocytogenes [17]): 14.8 mm

CC(=O)OCC1=C(C(=O)O)N2C(=O)[C@@H](NC(=O)Cc3cccs3)[C@H]2SC1 [CEPHALOTHIN]
zone of inhibition at 30 µg/disc (Listeria monocytogenes [16]): 30.3 mm | zone of inhibition at 30 µg/disc (Listeria monocytogenes [17]): 33.6 mm

CC1=C(C(=O)O)N2C(=O)[C@@H](NC(=O)[C@H](N)C3=CCC=CC3)[C@H]2SC1 [CEPHRADINE]
zone of inhibition at 30 µg/disc (Listeria monocytogenes [16]): 13.6 mm | zone of inhibition at 30 µg/disc (Listeria monocytogenes [17]): 16.9 mm

C/C=C(/NC(=O)[C@H](CCCCN)NC(=O)[C@H](C)NC(=O)[C@H]1CS[C@@H](C)[C@@H](NC(=O)[C@H]2CSC[C@@H](NC(=O)[C@H](C)NC(=O)[C@@H](N)[C@@H](C)CC)C(=O)N[C@@H](CCCCN)C(=O)N[C@@H](Cc3ccccc3)C(=O)N[C@@H](CC(C)C)C(=O)N2)C(=O)N2CCC[C@H]2C(=O)NCC(=O)N1)C(=O)NCC(=O)N[C@@H]1CSC[C@H]2NC(=O)[C@H](Cc3ccc(O)cc3)NC(=O)[C@@H](CS/C=C/NC2=O)NC(=O)[C@H](CC(N)=O)NC(=O)[C@H](Cc2ccccc2)NC1=O [GALLIDERMIN]
fold change (FC) (Listeria monocytogenes [2]): 4 | MIC (Listeria monocytogenes [4]): 0.5 µg/mL (≈ 0.231 µM) | MIC (Listeria monocytogenes [5]): 2 µg/mL (≈ 0.924 µM)

C[C@@H](O)[C@H]1C(=O)N2C(C(=O)O)=C(SCCNC=N)C[C@H]12 [IMIPENEM ANHYDROUS]
zone of inhibition at 30 µg/disc (Listeria monocytogenes [16]): 39.7 mm | zone of inhibition at 30 µg/disc (Listeria monocytogenes [17]): 42.3 mm

C=C(NC(=O)[C@@H](NC(=O)[C@H](Cc1cnc[nH]1)NC(=O)[C@@H](NC(=O)[C@H](CO)NC(=O)[C@@H]1CS[C@@H](C)[C@H]2NC(=O)C(=C)NC(=O)[C@H](NC(=O)[C@H](CCCCN)NC(=O)[C@H](CCSC)NC(=O)[C@H](CC(N)=O)NC(=O)[C@@H]3CS[C@@H](C)[C@@H](NC(=O)[C@H](CCCNN)NC(=O)[C@@H]4CS[C@@H](C)[C@@H](NC(=O)[C@@H]5CSC[C@@H](NC(=O)/C(=C\C)NC(=O)[C@@H](N)[C@@H](C)CC)C(=O)N[C@@H]([C@@H](C)CC)C(=O)NC(=C)C(=O)N[C@@H]([C@@H](C)CC)C(=O)N5)C(=O)N5CCC[C@H]5C(=O)NCC(=O)N4)C(=O)NCC(=O)N[C@@H](C)C(=O)N[C@@H]([C@@H](C)CC)C(=O)N[C@@H](CCSC)C(=O)NCC(=O)N3)[C@H](C)SC[C@H](NC2=O)C(=O)N[C@H](Cc2cnc[nH]2)C(=O)N1)[C@@H](C)CC)C(C)C)C(=O)N[C@@H](CCCCN)C(=O)O [NISIN]
Ratio (Listeria monocytogenes [6]): 2 | fold change (FC) (Listeria monocytogenes [2]): 2 | Ratio (Listeria monocytogenes [8]): -16 | Ratio (Listeria monocytogenes [9]): -2 | Ratio (Listeria monocytogenes [13]): -32

Cc1onc(-c2ccccc2)c1C(=O)N[C@@H]1C(=O)N2[C@@H]1SC(C)(C)[C@@H]2C(=O)O [OXACILLIN]
zone of inhibition at 1 µg/disc (Listeria monocytogenes [18]): 9.6 mm | zone of inhibition at 1 µg/disc (Listeria monocytogenes [19]): 11.9 mm

CC1(C)S[C@@H]2[C@H](NC(=O)Cc3ccccc3)C(=O)N2[C@H]1C(=O)O [PENICILLIN G]
zone of inhibition at 5 µg/disc (Listeria monocytogenes [20]): 30.5 mm | zone of inhibition at 5 µg/disc (Listeria monocytogenes [21]): 34.7 mm | fold change (FC) (Listeria monocytogenes [2]): 2 | MIC (Listeria monocytogenes [4]): 0.36 µg/mL (≈ 1.08 µM) | MIC (Listeria monocytogenes [5]): 0.72 µg/mL (≈ 2.15 µM)

CCN1CCN(C(=O)N[C@@H](C(=O)N[C@@H]2C(=O)N3[C@@H]2SC(C)(C)[C@@H]3C(=O)O)c2ccccc2)C(=O)C1=O [PIPERACILLIN]
zone of inhibition at 30 µg/disc (Listeria monocytogenes [16]): 30.7 mm | zone of inhibition at 30 µg/disc (Listeria monocytogenes [17]): 35.3 mm
